Reference: US20230017045A1, “PYRIDINE AND PYRIMIDINE CARBOXYLATE HERBICIDES AND METHODS OF USE THEREOF” (Dow AgroSciences LLC, priority 2017, published 2023)

tested on: test plant species; experiment: Post-emergent herbicidal activity test (greenhouse, foliar spray, visual growth reduction); type: in vivo; settings: post-emergence, 336 h, ALOMY: blackgrass (Alopecurus myosuroides), 140 g ai/ha, 14 days after application, read-out: Visual Growth Reduction (%) 14 Days After Application, ALOMY
Procedure, shortened: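 Seedlings were raised 7-21 d in a greenhouse under a 15 h photoperiod until the first or second true leaf. Each compound, dissolved in acetone:DMSO 97:3 and diluted into a surfactant-containing spray mixture, was then applied at 187 L/ha. Plants were subirrigated, and growth reduction was scored visually at 14 d.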

Question: Which pest or weed control at 140 g/ha does the source give for O=C(O)c1nc(-c2ccc3[nH]ccc3c2)c(F)cc1Cl [F199, 3-Chloro-5-fluoro-6-(1H-indol-5-yl)picolinic acid] here?
Answer: 0 to 29%

Question: COC(=O)c1nc(-c2ccc(C(F)(F)F)cc2Br)ccc1Cl [F30, Methyl 6-(2-bromo-4-trifluoromethyl)phenyl-3-chloropicolinate] was tested. Which pest or weed control at 140 g/ha did it give?
Answer: 60 to 74%

same assay, conditions: post-emergence, 336 h, AMARE: redroot pigweed (Amaranthus retroflexus), 140 g ai/ha, 14 days after application, read-out: Visual Growth Reduction (%) 14 Days After Application, AMARE

Question: O=C(O)c1nc(-c2ccc3[nH]ccc3c2)c(F)cc1Cl [F199, 3-Chloro-5-fluoro-6-(1H-indol-5-yl)picolinic acid] was tested. Which pest or weed control at 140 g/ha did it give?
Answer: 0 to 29%

Question: For COC(=O)c1nc(-c2ccc(C(F)(F)F)cc2Br)ccc1Cl [F30, Methyl 6-(2-bromo-4-trifluoromethyl)phenyl-3-chloropicolinate], which pest or weed control at 140 g/ha is on record?
Answer: 95 to 100%

same assay, conditions: post-emergence, 336 h, AVEFA: wild oat (Avena fatua), 140 g ai/ha, 14 days after application, read-out: Visual Growth Reduction (%) 14 Days After Application, AVEFA

Question: With O=C(O)c1nc(-c2ccc3[nH]ccc3c2)c(F)cc1Cl [F199, 3-Chloro-5-fluoro-6-(1H-indol-5-yl)picolinic acid] as the compound, how does the pest or weed control at 140 g/ha read?
Answer: 0 to 29%

Question: For COC(=O)c1nc(-c2ccc(C(F)(F)F)cc2Br)ccc1Cl [F30, Methyl 6-(2-bromo-4-trifluoromethyl)phenyl-3-chloropicolinate], which pest or weed control at 140 g/ha is on record?
Answer: 45 to 59%

same assay, conditions: post-emergence, 336 h, CHEAL: lambsquarters (Chenopodium album), 140 g ai/ha, 14 days after application, read-out: Visual Growth Reduction (%) 14 Days After Application, CHEAL

Question: O=C(O)c1nc(-c2ccc3[nH]ccc3c2)c(F)cc1Cl [F199, 3-Chloro-5-fluoro-6-(1H-indol-5-yl)picolinic acid] was tested. Which pest or weed control at 140 g/ha did it give?
Answer: 30 to 44%

Question: For COC(=O)c1nc(-c2ccc(C(F)(F)F)cc2Br)ccc1Cl [F30, Methyl 6-(2-bromo-4-trifluoromethyl)phenyl-3-chloropicolinate], which pest or weed control at 140 g/ha is on record?
Answer: 95 to 100%

same assay, conditions: post-emergence, 336 h, CIRAR: canada thistle (Cirsium arvense), 140 g ai/ha, 14 days after application, read-out: Visual Growth Reduction (%) 14 Days After Application, CIRAR

Question: For O=C(O)c1nc(-c2ccc3[nH]ccc3c2)c(F)cc1Cl [F199, 3-Chloro-5-fluoro-6-(1H-indol-5-yl)picolinic acid], which pest or weed control at 140 g/ha is on record?
Answer: 0 to 29%

Question: COC(=O)c1nc(-c2ccc(C(F)(F)F)cc2Br)ccc1Cl [F30, Methyl 6-(2-bromo-4-trifluoromethyl)phenyl-3-chloropicolinate] was tested. Which pest or weed control at 140 g/ha did it give?
Answer: 85 to 94%

same assay, conditions: post-emergence, 336 h, CYPES: yellow nutsedge (Cyperus esculentus), 140 g ai/ha, 14 days after application, read-out: Visual Growth Reduction (%) 14 Days After Application, CYPES

Question: With O=C(O)c1nc(-c2ccc3[nH]ccc3c2)c(F)cc1Cl [F199, 3-Chloro-5-fluoro-6-(1H-indol-5-yl)picolinic acid] as the compound, how does the pest or weed control at 140 g/ha read?
Answer: 0 to 29%

Question: With COC(=O)c1nc(-c2ccc(C(F)(F)F)cc2Br)ccc1Cl [F30, Methyl 6-(2-bromo-4-trifluoromethyl)phenyl-3-chloropicolinate] as the compound, how does the pest or weed control at 140 g/ha read?
Answer: 0 to 29%

same assay, conditions: post-emergence, 336 h, DIGSA: crabgrass (Digitaria sanguinalis), 140 g ai/ha, 14 days after application, read-out: Visual Growth Reduction (%) 14 Days After Application, DIGSA

Question: O=C(O)c1nc(-c2ccc3[nH]ccc3c2)c(F)cc1Cl [F199, 3-Chloro-5-fluoro-6-(1H-indol-5-yl)picolinic acid] was tested. Which pest or weed control at 140 g/ha did it give?
Answer: 0 to 29%

Question: Which pest or weed control at 140 g/ha does the source give for COC(=O)c1nc(-c2ccc(C(F)(F)F)cc2Br)ccc1Cl [F30, Methyl 6-(2-bromo-4-trifluoromethyl)phenyl-3-chloropicolinate] here?
Answer: 85 to 94%

same assay, conditions: post-emergence, 336 h, ECHCG: barnyardgrass (Echinochloa crus-galli), 140 g ai/ha, 14 days after application, read-out: Visual Growth Reduction (%) 14 Days After Application, ECHCG

Question: How did the pest or weed control at 140 g/ha turn out when O=C(O)c1nc(-c2ccc3[nH]ccc3c2)c(F)cc1Cl [F199, 3-Chloro-5-fluoro-6-(1H-indol-5-yl)picolinic acid] was run?
Answer: 0 to 29%

Question: For COC(=O)c1nc(-c2ccc(C(F)(F)F)cc2Br)ccc1Cl [F30, Methyl 6-(2-bromo-4-trifluoromethyl)phenyl-3-chloropicolinate], which pest or weed control at 140 g/ha is on record?
Answer: 45 to 59%

same assay, conditions: post-emergence, 336 h, IPOHE: ivy-leaf morning glory (Ipomoea hederacea), 140 g ai/ha, 14 days after application, read-out: Visual Growth Reduction (%) 14 Days After Application, IPOHE

Question: How did the pest or weed control at 140 g/ha turn out when O=C(O)c1nc(-c2ccc3[nH]ccc3c2)c(F)cc1Cl [F199, 3-Chloro-5-fluoro-6-(1H-indol-5-yl)picolinic acid] was run?
Answer: 0 to 29%

Question: With COC(=O)c1nc(-c2ccc(C(F)(F)F)cc2Br)ccc1Cl [F30, Methyl 6-(2-bromo-4-trifluoromethyl)phenyl-3-chloropicolinate] as the compound, how does the pest or weed control at 140 g/ha read?
Answer: 95 to 100%

same assay, conditions: post-emergence, 336 h, KCHSC: kochia (Bassia scoparia), 140 g ai/ha, 14 days after application, read-out: Visual Growth Reduction (%) 14 Days After Application, KCHSC

Question: Which pest or weed control at 140 g/ha does the source give for O=C(O)c1nc(-c2ccc3[nH]ccc3c2)c(F)cc1Cl [F199, 3-Chloro-5-fluoro-6-(1H-indol-5-yl)picolinic acid] here?
Answer: 0 to 29%

Question: COC(=O)c1nc(-c2ccc(C(F)(F)F)cc2Br)ccc1Cl [F30, Methyl 6-(2-bromo-4-trifluoromethyl)phenyl-3-chloropicolinate] was tested. Which pest or weed control at 140 g/ha did it give?
Answer: 75 to 84%

same assay, conditions: post-emergence, 336 h, ORYSA: rice (Oryza sativa), 140 g ai/ha, 14 days after application, read-out: Visual Growth Reduction (%) 14 Days After Application, ORYSA

Question: With O=C(O)c1nc(-c2ccc3[nH]ccc3c2)c(F)cc1Cl [F199, 3-Chloro-5-fluoro-6-(1H-indol-5-yl)picolinic acid] as the compound, how does the pest or weed control at 140 g/ha read?
Answer: 0 to 29%

Question: COC(=O)c1nc(-c2ccc(C(F)(F)F)cc2Br)ccc1Cl [F30, Methyl 6-(2-bromo-4-trifluoromethyl)phenyl-3-chloropicolinate] was tested. Which pest or weed control at 140 g/ha did it give?
Answer: 0 to 29%

same assay, conditions: post-emergence, 336 h, SETFA: giant foxtail (Setaria faberi), 140 g ai/ha, 14 days after application, read-out: Visual Growth Reduction (%) 14 Days After Application, SETFA

Question: With O=C(O)c1nc(-c2ccc3[nH]ccc3c2)c(F)cc1Cl [F199, 3-Chloro-5-fluoro-6-(1H-indol-5-yl)picolinic acid] as the compound, how does the pest or weed control at 140 g/ha read?
Answer: 0 to 29%

Question: For COC(=O)c1nc(-c2ccc(C(F)(F)F)cc2Br)ccc1Cl [F30, Methyl 6-(2-bromo-4-trifluoromethyl)phenyl-3-chloropicolinate], which pest or weed control at 140 g/ha is on record?
Answer: 45 to 59%

same assay, conditions: post-emergence, 336 h, SORVU: grain sorghum (Sorghum vulgare), 140 g ai/ha, 14 days after application, read-out: Visual Growth Reduction (%) 14 Days After Application, SORVU

Question: O=C(O)c1nc(-c2ccc3[nH]ccc3c2)c(F)cc1Cl [F199, 3-Chloro-5-fluoro-6-(1H-indol-5-yl)picolinic acid] was tested. Which pest or weed control at 140 g/ha did it give?
Answer: 0 to 29%

Question: For COC(=O)c1nc(-c2ccc(C(F)(F)F)cc2Br)ccc1Cl [F30, Methyl 6-(2-bromo-4-trifluoromethyl)phenyl-3-chloropicolinate], which pest or weed control at 140 g/ha is on record?
Answer: 85 to 94%

same assay, conditions: post-emergence, 336 h, STEME: common chickweed (Stellaria media), 140 g ai/ha, 14 days after application, read-out: Visual Growth Reduction (%) 14 Days After Application, STEME

Question: How did the pest or weed control at 140 g/ha turn out when O=C(O)c1nc(-c2ccc3[nH]ccc3c2)c(F)cc1Cl [F199, 3-Chloro-5-fluoro-6-(1H-indol-5-yl)picolinic acid] was run?
Answer: 0 to 29%

Question: With COC(=O)c1nc(-c2ccc(C(F)(F)F)cc2Br)ccc1Cl [F30, Methyl 6-(2-bromo-4-trifluoromethyl)phenyl-3-chloropicolinate] as the compound, how does the pest or weed control at 140 g/ha read?
Answer: 0 to 29%

same assay, conditions: post-emergence, 336 h, TRZAS: wheat, spring (Triticum aestivum), 140 g ai/ha, 14 days after application, read-out: Visual Growth Reduction (%) 14 Days After Application, TRZAS

Question: With O=C(O)c1nc(-c2ccc3[nH]ccc3c2)c(F)cc1Cl [F199, 3-Chloro-5-fluoro-6-(1H-indol-5-yl)picolinic acid] as the compound, how does the pest or weed control at 140 g/ha read?
Answer: 0 to 29%

Question: COC(=O)c1nc(-c2ccc(C(F)(F)F)cc2Br)ccc1Cl [F30, Methyl 6-(2-bromo-4-trifluoromethyl)phenyl-3-chloropicolinate] was tested. Which pest or weed control at 140 g/ha did it give?
Answer: 60 to 74%
